Data: patent US20200385371A1 (Propellon Therapeutics Inc., priority 2017, published 2020)
Read-outs that look alike come from different tables or passages of the source.

Assays:
[1] = biological target: T1, WDR5 (Homo sapiens, UniProt P61964); assay: Fluorescence Polarization (FP) binding assay
Experimental: H3 (1-15) ([…]), and 9-Ala-FAM ((Ac)-[…]-(Ahx-Ahx)-K(5,6-FAM)) (where Ahx represents 6 amino hexanoic acid linkers) peptides for WDR5 were synthesized, N-terminal-labeled with isothiocyanate-fluorescein, and purified by Tufts University Core Services (Boston, Mass.). Compound binding assays were performed at a constant labeled peptide concentration of 30 or 20 nM for H3 (1-15) and 9-Ala-FAM respectively. WDR5 concentrations of 0.3 μM for H3 (1-15) and 0.05 μM for 9-Ala-FAM were used. For both the H3 (1-15) and 9-Ala-FAM peptides, 80 mM sodium phosphate buffer (pH 6.5), 20 mM KCl, and 0.008% Triton X-100 was used. For the H3 (1-15) peptide, FP assays were measured in 10 μl aliquots in 384-well Axygen plates using a Synergy 4 microplate reader (BioTek) with an excitation wavelength of 485 nm and emission wavelength of 528 nm. For the 9-Ala-FAM peptide, FP assays were measured in 125 μl aliquots in 96 well Microfluor plates using a ViewLux instrument (Perkin Elmer) with an excitation wavelength of 480 nm and emission wavelength of 540 nm. To determine Kdsp values, the data were fit to a hyperbolic function using Sigma Plot software (Systat Software). The Kdisp values represent the average of quadruplicate measurements.

[2] = tested on: MV4-11 cells; assay: Cell proliferation assay (ATPlite); assay type: cell-based; details: Homo sapiens; for EC50: 120 h, MV4-11 cells, five days, read-out: GI MV411 EC50; for IC50: MV4-11, Table 2
Experimental: MV4-11 cells were seeded into a 96-well plate at 1,000 cells/well in 150 μl medium (Alpha-MEM containing 10% FBS, 100 μg/ml Normocin, and 50 μg/ml Gentamycin, Invitrogen). A HP D300 digital dispenser was used to dose cells with DMSO or test compounds across a 10-point range of concentrations (high dose of 10 μM), and cultures were grown in a humidified 5% CO2 incubator at 37° C. After five days, plates were removed from incubator and equilibrated to room temperature. An equal volume of ATPlite assay reagent was added to each well, and samples were processed according to manufacturer's instructions (Perkin Elmer). Luminescent signal was measured using an Envision plate reader equipped with a US-Luminescence detector.

[3] = biological target: T1, WDR5; assay: Surface Plasmon Resonance (SPR) assay; assay type: binding; design: Full length WDR5 with an N-terminal His tag and C-terminal AviTag; His tag (N); made in house; host or cells: E. coli
Experimental: Exemplary compounds of the application were dissolved in 100% DMSO at 10 mM, assayed fresh, and then stored at −20° C. for repeat studies and other experiments. Full length WDR5 with an N-terminal His tag and C-terminal AviTag (Avidity Inc.) was expressed in E. coli with coexpression of BirA to biotin label the protein in vivo. Purification was via Ni-NTA.
SPR studies were performed using a Biacore™ T200 instrument (GE Health Sciences Inc.). Biotinylated WDR5 protein (approximately 3000RU) was stably captured to streptavidin coupled SA chips according to the manufacture's protocol (GE Health Sciences Inc.). The running buffer used was HBS-EP (20 mM Hepes pH 7.4, 150 mM NaCl, 3 mM EDTA, 0.05% P-20) plus 5% DMSO with a flow rate of 40 μl/min. For SPR analysis, 5 different concentrations of each exemplary compound of the application were sprayed into 96 or 384 well plates using an HP D300 digital dispenser. The concentration ranged from about 195 nM to about 12 nM in a two-fold series. […] Curve fitting and KD calculations were performed with the Biacore T200 Evalutation software (GE Health Sciences Inc).

IC50 [1] [nM] | EC50 [2] [nM] | Kd ([3]; read-out: SPR Kd) [nM] | IC50 [2] [nM] | Kd ([3]; Table 2, effect of difluoro substitution, read-out: KD (SPR)) [nM] | Structure (SMILES)
12.4 | 132 | 2.01 |  |  | C[C@@H]1CN(c2nc(-c3c(F)cc(N4CCN(C)[C@@H](C)C4)c(NC(=O)c4c[nH]c(=O)cc4C(F)F)c3F)cs2)C[C@H](C)O1 [Example 132, 4-(Difluoromethyl)-N-(3-(2-((2S,6R)-2,6-dimethylmorpholino)thiazol-4-yl)-6-((S)-3,4-dimethylpiperazin-1-yl)-2,4-difluorophenyl)-6-oxo-1,6-dihydropyridine-3-carboxamide]
10.9 | 33.2 | 1.94 |  |  | C[C@@H]1CN(c2ncc(-c3c(F)cc(N4CCN(C)[C@@H](C)C4)c(NC(=O)c4ccc(F)cc4C(F)F)c3F)cn2)C[C@H](C)O1 [Example 110, 2-(Difluoromethyl)-N-(3-(2-((2S,6R)-2,6-dimethylmorpholino)pyrimidin-5-yl)-6-((S)-3,4-dimethylpiperazin-1-yl)-2,4-difluorophenyl)-4-fluorobenzamide formic acid]
16.4 | 36.7 | 2.12 |  |  | COc1cc(N2CC=C(c3c(F)cc(N4CCN(C)[C@@H](C)C4)c(NC(=O)c4c[nH]c(=O)cc4C(F)F)c3F)C2)ncn1 [Example 74, (S)-4-(difluoromethyl)-N-(6-(3,4-dimethylpiperazin-1-yl)-2,4-difluoro-3-(1-(6-methoxypyrimidin-4-yl)-2,5-dihydro-1H-pyrrol-3-yl)phenyl)-6-oxo-1,6-dihydropyridine-3-carboxamide]
11.7 | 10.2 | 0.69 |  |  | C[C@@H]1CN(c2ncc(-c3c(F)cc(N4CCN(C)[C@@H](C)C4)c(NC(=O)c4c[nH]c(=O)cc4C(F)(F)F)c3F)cn2)CCO1 [Example 127, N-(6-((S)-3,4-dimethylpiperazin-1-yl)-2,4-difluoro-3-(2-((R)-2-methylmorpholino)pyrimidin-5-yl)phenyl)-6-oxo-4-(trifluoromethyl)-1,6-dihydropyridine-3-carboxamide]
22.4 | 1110 | 3.9 |  |  | CNC(=O)c1cc(-c2c(F)cc(N3C[C@@H](C)N(C)[C@@H](C)C3)c(NC(=O)c3c[nH]c(=O)cc3C(F)(F)F)c2F)ccc1F [Example 29, 6-Oxo-N-(2,4′,6-trifluoro-3′-(methylcarbamoyl)-4-((3S,5R)-3,4,5-trimethylpiperazin-1-yl)-[1,1′-biphenyl]-3-yl)-4-(trifluoromethyl)-1,6-dihydropyridine-3-carboxamide]
19.5 | 75.8 | 1.02 |  |  | COc1cnc(N2CC=C(c3c(F)cc(N4CCN(C)[C@@H](C)C4)c(NC(=O)c4c[nH]c(=O)cc4C(F)(F)F)c3F)CC2)nc1 [Example 53, (S)—N-(6-(3,4-dimethylpiperazin-1-yl)-2,4-difluoro-3-(1-(5-methoxypyrimidin-2-yl)-1,2,3,6-tetrahydropyridin-4-yl)phenyl)-6-oxo-4-(trifluoromethyl)-1,6-dihydropyridine-3-carboxamide]
 |  |  | 3540 | 77 | C[C@@H]1CN(c2c(F)cc(-c3cnc(N4CCOCC4)nc3)cc2NC(=O)c2c[nH]c(=O)cc2C(F)(F)F)C[C@H](C)N1C [reference compound]
22.5 | 270 | 1.49 |  |  | COc1cnc(N2CC=C(c3c(F)cc(N4CCN(C)[C@@H](C)C4)c(NC(=O)c4c[nH]c(=O)cc4C(F)F)c3F)CC2)nc1 [Example 48, (S)-4-(difluoromethyl)-N-(6-(3,4-dimethylpiperazin-1-yl)-2,4-difluoro-3-(1-(5-methoxypyrimidin-2-yl)-1,2,3,6-tetrahydropyridin-4-yl)phenyl)-6-oxo-1,6-dihydropyridine-3-carboxamide]
10.2 | 33.8 | 1.51 |  |  | C[C@@H]1CN(c2cc(F)c(-c3ccc(OC4CCOCC4)nc3)c(F)c2NC(=O)c2c[nH]c(=O)cc2C(F)(F)F)C[C@H](C)N1C [Example 65, N-(2,4-difluoro-3-(6-((tetrahydro-2H-pyran-4-yl)oxy)pyridin-3-yl)-6-((3S,5R)-3,4,5-trimethylpiperazin-1-yl)phenyl)-6-oxo-4-(trifluoromethyl)-1,6-dihydropyridine-3-carboxamide]
21 | 11.8 | 6.17 |  |  | C[C@@H]1CN(c2cc(F)c(-c3cnc(N4CCO[C@@H](C)C4)nc3)c(F)c2NC(=O)c2c[nH]c(=O)cc2C(F)(F)F)C[C@H](C)N1C [Example 101, N-(2,4-difluoro-3-(2-((S)-2-methylmorpholino)pyrimidin-5-yl)-6-((3S,5R)-3,4,5-trimethylpiperazin-1-yl)phenyl)-6-oxo-4-(trifluoromethyl)-1,6-dihydropyridine-3-carboxamide]
26.5 | 170 | 1.29 |  |  | C[C@H]1CN(c2cc(F)c(-c3ccc4c(c3)OCCO4)c(F)c2NC(=O)c2c[nH]c(=O)cc2C(F)(F)F)CCN1C [Example 185, (S)—N-(3-(2,3-dihydrobenzo[b][1,4]dioxin-6-yl)-6-(3,4-dimethylpiperazin-1-yl)-2,4-difluorophenyl)-6-oxo-4-(trifluoromethyl)-1,6-dihydropyridine-3-carboxamide]
14.4 | 56.6 | 1.14 |  |  | C[C@@H]1CN(c2nccc(-c3c(F)cc(N4CCN(C)[C@@H](C)C4)c(NC(=O)c4c[nH]c(=O)cc4C(F)F)c3F)n2)C[C@H](C)O1 [Example 59, 4-(Difluoromethyl)-N-(3-(2-((2S,6R)-2,6-dimethylmorpholino)pyrimidin-4-yl)-6-((S)-3,4-dimethylpiperazin-1-yl)-2,4-difluorophenyl)-6-oxo-1,6-dihydropyridine-3-carboxamide]
19.5 | 109 | 1.93 |  |  | COc1cnc(N2CCC=C(c3c(F)cc(N4C[C@@H](C)N(C)[C@@H](C)C4)c(NC(=O)c4c[nH]c(=O)cc4C(F)(F)F)c3F)C2)nc1 [Example 138, N-(2,4-difluoro-3-(1-(5-methoxypyrimidin-2-yl)-1,2,5,6-tetrahydropyridin-3-yl)-6-((3S,5R)-3,4,5-trimethylpiperazin-1-yl)phenyl)-6-oxo-4-(trifluoromethyl)-1,6-dihydropyridine-3-carboxamide]
11.7 | 22.9 | 1.26 |  |  | C[C@@H]1CN(c2cc(F)c(-c3cnc(N4CCC(F)(F)CC4)nc3)c(F)c2NC(=O)c2c[nH]c(=O)cc2C(F)(F)F)C[C@H](C)N1C [Example 61, N-(3-(2-(4,4-difluoropiperidin-1-yl)pyrimidin-5-yl)-2,4-difluoro-6-((3S,5R)-3,4,5-trimethylpiperazin-1-yl)phenyl)-6-oxo-4-(trifluoromethyl)-1,6-dihydropyridine-3-carboxamide]
21 | 239 | 1.65 |  |  | C[C@@H]1CN(c2cc(F)c(C3=CCCN(c4ncc(F)cn4)C3)c(F)c2NC(=O)c2c[nH]c(=O)cc2C(F)(F)F)C[C@H](C)N1C [Example 146, N-(2,4-difluoro-3-(1-(5-fluoropyrimidin-2-yl)-1,2,5,6-tetrahydropyridin-3-yl)-6-((3S,5R)-3,4,5-trimethylpiperazin-1-yl)phenyl)-6-oxo-4-(trifluoromethyl)-1,6-dihydropyridine-3-carboxamide]
 |  |  | 25 |  | C[C@@H]1CN(c2cc(F)c(-c3cnc(N4CCOCC4)nc3)cc2NC(=O)c2c[nH]c(=O)cc2C(F)(F)F)C[C@H](C)N1C [reference compound]
